Source: patent US20210109103A1, “METHODS AND KITS FOR DETECTING O-GlcNAc SITES USING B3GALNT2 AND OGT” (BIO-TECHNE CORPORATION, priority 2018, published 2021)

Experiments:
[1] = target: T1, recombinant human B3GALNT2 (Homo sapiens, UniProt Q8NCR0); assay: phosphatase coupled universal glycosyltransferase assay, B3GALNT2; assay type: biochemical; conditions: 0.4 mM nucleotide sugar donor, 2 mM acceptor benzyl-β-GlcNAc, 1 μg B3GALNT2, 37° C., 20 minutes; compared with UDP-GalNAc (FIG. 8)
T1 construct: purchased R&D Systems and/or Bio-Techne
T1 sequence (Q8NCR0 1-500): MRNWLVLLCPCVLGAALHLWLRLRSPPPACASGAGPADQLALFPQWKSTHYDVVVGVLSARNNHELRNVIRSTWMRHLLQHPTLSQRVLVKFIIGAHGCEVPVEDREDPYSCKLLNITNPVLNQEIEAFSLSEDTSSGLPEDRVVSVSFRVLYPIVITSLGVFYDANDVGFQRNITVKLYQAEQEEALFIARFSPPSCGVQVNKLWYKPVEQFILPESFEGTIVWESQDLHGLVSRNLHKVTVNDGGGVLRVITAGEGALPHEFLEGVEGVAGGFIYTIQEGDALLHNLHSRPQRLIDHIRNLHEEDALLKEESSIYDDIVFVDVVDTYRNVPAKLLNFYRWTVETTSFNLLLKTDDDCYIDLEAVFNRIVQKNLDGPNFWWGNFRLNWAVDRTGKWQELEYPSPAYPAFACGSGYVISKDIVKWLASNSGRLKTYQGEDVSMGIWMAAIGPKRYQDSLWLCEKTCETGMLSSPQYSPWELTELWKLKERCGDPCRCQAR
Experimental: (§1) Using a phosphatase coupled universal glycosyltransferase assay, an analysis of the activity of B3GALNT2 and OGT on regular nucleotide sugar as compared to azido nucleotide sugar was performed. For the B3GALNT2 assay, 0.4 mM nucleotide sugar donor (UDP-GalNAc or UDP-GalNAz), 2 mM of acceptor substrate benzyl-β-GlcNAc, and 0.1 μg of coupling phosphatase 1 were combined with 1 μg of B3GALNT2 in 50 μL of assay buffer of 25 mM Tris at pH 7.5, 10 mM MnCl2 and 10 mM CaCl2 at 37° C. for 20 minutes. For the OGT assay, 0.4 mM nucleotide sugar donor (UDP-GlcNAc or UDP-GlcNAz), 0.2 mM of acceptor OGT substrate, and 0.1 μg of coupling phosphatase 1 were combined with 2.5 μg of OGT in 50 μL of assay buffer of 25 mM Tris at pH 7.5, 10 mM MnCl2 and 10 mM CaCl2 at 37° C. for 20 minutes. Both assays were performed according to the Universal Glycosyltransferase Assay Kit from R&D Systems®. FIG. 8 is a bar graph of the activity of B3GALNT2 and OGT on regular nucleotide sugars compared to azido nucleotide sugars.

[2] = target: T2, recombinant human O-GlcNAc transferase (OGT) (Homo sapiens, UniProt O15294); assay: phosphatase coupled universal glycosyltransferase assay, OGT; assay type: biochemical; conditions: 0.4 mM nucleotide sugar donor, 0.2 mM acceptor OGT substrate, 2.5 μg OGT, 37° C., 20 minutes (FIG. 8)
T2 construct: purchased R&D Systems and/or Bio-Techne
T2 sequence (O15294 1-1046): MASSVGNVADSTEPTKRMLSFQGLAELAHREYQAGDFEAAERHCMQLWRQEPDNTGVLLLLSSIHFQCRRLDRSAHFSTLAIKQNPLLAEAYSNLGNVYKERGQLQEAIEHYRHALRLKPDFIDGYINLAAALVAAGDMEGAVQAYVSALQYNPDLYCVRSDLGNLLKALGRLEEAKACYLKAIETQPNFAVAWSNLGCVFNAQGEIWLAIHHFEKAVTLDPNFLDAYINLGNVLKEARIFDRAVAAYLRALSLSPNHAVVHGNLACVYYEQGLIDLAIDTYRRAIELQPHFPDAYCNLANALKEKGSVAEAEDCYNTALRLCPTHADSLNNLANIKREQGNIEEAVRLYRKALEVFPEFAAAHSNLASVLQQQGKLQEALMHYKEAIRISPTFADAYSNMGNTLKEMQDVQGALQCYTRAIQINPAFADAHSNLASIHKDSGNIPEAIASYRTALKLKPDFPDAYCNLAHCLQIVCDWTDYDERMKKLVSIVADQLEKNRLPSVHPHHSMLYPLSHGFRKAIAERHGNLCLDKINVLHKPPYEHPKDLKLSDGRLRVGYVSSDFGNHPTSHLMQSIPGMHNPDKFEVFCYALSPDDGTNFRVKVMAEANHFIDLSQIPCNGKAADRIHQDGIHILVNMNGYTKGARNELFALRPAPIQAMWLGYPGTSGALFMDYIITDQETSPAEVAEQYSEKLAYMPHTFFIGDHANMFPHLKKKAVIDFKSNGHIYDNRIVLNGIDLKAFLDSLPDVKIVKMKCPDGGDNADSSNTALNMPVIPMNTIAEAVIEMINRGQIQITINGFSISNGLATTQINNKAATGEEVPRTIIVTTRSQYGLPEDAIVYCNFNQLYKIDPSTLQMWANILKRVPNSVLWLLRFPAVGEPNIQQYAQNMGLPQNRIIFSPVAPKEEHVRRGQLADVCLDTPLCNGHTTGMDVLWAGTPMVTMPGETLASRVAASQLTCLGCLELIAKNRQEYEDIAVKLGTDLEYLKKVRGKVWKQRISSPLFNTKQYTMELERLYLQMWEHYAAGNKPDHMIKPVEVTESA
Experimental: as §1

Row | Structure (SMILES) | activity of B3GALNT2 on azido nucleotide sugar compared to regular nucleotide sugar [1] | activity of OGT on azido nucleotide sugar compared to regular nucleotide sugar [2]
1 | [N-]=[N+]=NCC(=O)N[C@H]1[C@@H](OP(=O)(O)OP(=O)(O)OC[C@H]2O[C@@H](n3ccc(=O)[nH]c3=O)[C@H](O)[C@@H]2O)O[C@H](CO)[C@H](O)[C@@H]1O [UDP-GalNAz] | more active on UDP-GalNAz than on UDP-GalNAc | –
2 | [N-]=[N+]=NCC(=O)N[C@H]1[C@@H](OP(=O)(O)OP(=O)(O)OC[C@H]2O[C@@H](n3ccc(=O)[nH]c3=O)[C@H](O)[C@@H]2O)O[C@H](CO)[C@@H](O)[C@@H]1O [UDP-GlcNAz] | – | equally active
3 | CC(=O)N[C@H]1[C@@H](OP(=O)(O)OP(=O)(O)OC[C@H]2O[C@@H](n3ccc(=O)[nH]c3=O)[C@H](O)[C@@H]2O)O[C@H](CO)[C@@H](O)[C@@H]1O [UDP-GlcNAc] | – | equally active
